Experiments:
human GHS-R 1a = target: T1, human GHS-R 1a (Homo sapiens, UniProt Q92847); assay: GHS-R 1a receptor-ligand binding assay (membrane preparations from transfected LLC PK-1 cells); conditions: displacement of 125I-His9-ghrelin (60 pM); membranes of LLC PK-1 cells transfected with human GHS-R 1a; mean of at least two independent experiments in triplicates
T1 construct: expressed in transfected cells; host or cells: LLC PK-1 porcine renal epithelial cells (ECACC No. 86121112), isolated plasma membranes
How it was run: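 Membranes from LLC PK-1 cells expressing human GHS-R 1a incubated 60 min at 25 °C in 50 mM Tris pH 7.3, 5 mM MgCl2, 2.5 mM EDTA, bacitracin with 60 pM 125I-ghrelin and competitor; nonspecific binding with 10^-6 M ghrelin; filtration read-out.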

[1] = test system: young-adult male Sprague-Dawley rats; assay: Feeding behavior (food intake) of young-adult male rats; format: in vivo, rat (Sprague-Dawley)
Description: V) Assaying the Feeding Behavior (Food Intake) of Young-Adult Male Rats
The impact of compounds of the invention being GHS receptor analogue ligands on the feeding behaviour, i.e. food intake, of young-adult male rats was assayed.
In principle, assaying the feeding behavior (food intake) of young-adult male rats was performed according to Torsello et al. (Eur. J. Pharmacol. 1998, 360: 123-129).
For the assay, young-adult male Sprague-Dawley rats (Charles River, Calco, Italy), weighing 200-250 g, were used.
Rats had 1 week of acclimation in individual home cages, and animal room conditions (22±2° C., 65% humidity, artificial light from 08.00 to 20.00 h). The following week, they were daily trained to mimic the experimental procedure. Rats maintained free access to dry pellets and tap water throughout the whole experimental period. At the end of training, rats were administered (around 10.00-11.00 a.m.) subcutaneously with the compounds to be tested (160 μg/kg body weight) and/or hexarelin (80 μg/kg body weight) and/or solvent [DMSO (0.4% of total volume), distilled water (4% of total volume), brought to the final volume with physiological saline].
Hexarelin was used to study the effects of the compounds to be tested on stimulated feeding behavior. Immediately after the injections, the animals were returned to their home cages, which contained a known amount of standard rat chow and ad libitum water. Every hour for the following 6 hours, the remaining food was carefully collected and weighed to the nearest 0.1 g. Food intake was normalized for the body weight of the rats and expressed as grams of food eaten per 100 g body weight of rats.
In the following table 4 results obtained for selected compounds of the invention are presented.

[2] = compound 160 μg/kg s.c. + hexarelin 80 μg/kg s.c.
[3] = compound alone, 160 μg/kg body weight s.c.

T1 sequence (Q92847 whole entry): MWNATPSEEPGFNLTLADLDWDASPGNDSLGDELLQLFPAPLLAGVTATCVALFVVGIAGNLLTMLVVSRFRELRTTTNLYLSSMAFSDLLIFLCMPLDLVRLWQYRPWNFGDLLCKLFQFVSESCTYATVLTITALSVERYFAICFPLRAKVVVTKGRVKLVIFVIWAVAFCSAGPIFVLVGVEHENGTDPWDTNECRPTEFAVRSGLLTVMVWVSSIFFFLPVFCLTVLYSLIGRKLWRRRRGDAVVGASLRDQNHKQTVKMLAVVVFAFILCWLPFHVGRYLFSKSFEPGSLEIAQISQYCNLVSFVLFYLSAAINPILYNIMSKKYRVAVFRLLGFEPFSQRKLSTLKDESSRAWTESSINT

IC50 (human GHS-R 1a) [nM]	Compound	further results
32	COc1ccc(Cn2c(CCc3c[nH]c4ccccc34)nnc2[C@@H](Cc2c[nH]c3ccccc23)NC(=O)C2CNCCN2)c(OC)c1 (mixture of isomers) [compound 72]	Cumulative food intake (after 2 hours) [1, 2]: 0.634 ± 0.33 g food/100 g body weight; Cumulative food intake (after 6 hours) [1, 2]: 0.746 ± 0.31 g food/100 g body weight; Cumulative food intake (after 2 hours) [1, 3]: 0.008 ± 0.003 g food/100 g body weight; Cumulative food intake (after 6 hours) [1, 3]: 0.011 ± 0 g food/100 g body weight
171	CC(C)(N)C(=O)N[C@H](Cc1c[nH]c2ccccc12)c1nnc(Cc2ccccc2)n1Cc1ccc(F)cc1 [compound 30, (R)—N-(1-(4-(4-fluorobenzyl)-5-benzyl-4H-1,2,4-triazol-3-yl)-2-(1H-indol-3-yl)ethyl)-2-amino-2-methylpropanamide]	Cumulative food intake (after 2 hours) [1, 2]: 1.350 ± 0.177 g food/100 g body weight; Cumulative food intake (after 6 hours) [1, 2]: 1.449 ± 0.213 g food/100 g body weight; Cumulative food intake (after 2 hours) [1, 3]: 0.264 ± 0.244 g food/100 g body weight; Cumulative food intake (after 6 hours) [1, 3]: 0.277 ± 0.246 g food/100 g body weight
66	CC(C)(N)C(=O)N[C@H](Cc1c[nH]c2ccccc12)c1nnc(CCc2c[nH]c3ccccc23)n1Cc1ccc(F)cc1 [compound 29, (R)—N-(1-(5-(2-(1H-indol-3-yl)ethyl)-4-(4-fluorobenzyl)-4H-1,2,4-triazol-3-yl)-2-(1H-indol-3-yl)ethyl)-2-amino-2-methylpropanamide]	
	COc1ccc(Cn2c(CCc3ccccc3)nnc2[C@@H](Cc2c[nH]c3ccccc23)NC(=O)[C@H]2CCCCN2)cc1 [compound 49, (R)—N—((R)-1-(4-(4-methoxybenzyl)-5-phenethyl-4H-1,2,4-triazol-3-yl)-2-(1H-indol-3-yl)ethyl)piperidine-2-carboxamide]	Cumulative food intake (after 2 hours) [1, 2]: 0.057 ± 0.037 g food/100 g body weight; Cumulative food intake (after 6 hours) [1, 2]: 0.558 ± 0.212 g food/100 g body weight; Cumulative food intake (after 2 hours) [1, 3]: 0.004 ± 0.004 g food/100 g body weight; Cumulative food intake (after 6 hours) [1, 3]: 0.004 ± 0.004 g food/100 g body weight
51	CCc1ccc(Cn2c(CCc3ccccc3)nnc2[C@@H](Cc2c[nH]c3ccccc23)NC(=O)Cc2ccccn2)cc1 [compound 82, (R)—N-(1-(4-(4-ethylbenzyl)-5-phenethyl-4H-1,2,4-triazol-3-yl)-2-(1H-indol-3-yl)ethyl)-2-(pyridin-2-yl)acetamide]	
247	CCc1ccc(Cn2c(CCc3ccccc3)nnc2[C@@H](Cc2c[nH]c3ccccc23)NC(=O)C2CNCCN2)cc1 (mixture of isomers) [compound 84]	
78	COc1cccc(Cn2c(CCc3ccccc3)nnc2[C@@H](Cc2c[nH]c3ccccc23)NC(=O)C(C)(C)N)c1 [compound 19, (R)—N-(1-(4-(3-methoxybenzyl)-5-phenethyl-4H-1,2,4-triazol-3-yl)-2-(1H-indol-3-yl)ethyl)-2-amino-2-methylpropanamide]	
28	Cc1ccc(Cn2c(CCc3c[nH]c4ccccc34)nnc2[C@@H](Cc2c[nH]c3ccccc23)NC(=O)C(C)(C)N)cc1 [compound 34, (R)—N-(1-(5-(2-(1H-indol-3-yl)ethyl)-4-(4-methylbenzyl)-4H-1,2,4-triazol-3-yl)-2-(1H-indol-3-yl)ethyl)-2-amino-2-methylpropanamide]	
61	O=C(Cc1ccccn1)N[C@H](Cc1c[nH]c2ccccc12)c1nnc(CCc2c[nH]c3ccccc23)n1Cc1ccccc1 [compound 60, (R)—N-(1-(5-(2-(1H-indol-3-yl)ethyl)-4-benzyl-4H-1,2,4-triazol-3-yl)-2-(1H-indol-3-yl)ethyl)-2-(pyridin-2-yl)acetamide]	
188	CCc1ccc(Cn2c(CCc3ccccc3)nnc2[C@@H](Cc2c[nH]c3ccccc23)NC(=O)[C@H]2CCCNC2)cc1 [compound 155, (3S)—N—((R)-1-(4-(4-ethylbenzyl)-5-phenethyl-4H-1,2,4-triazol-3-yl)-2-(1H-indol-3-yl)ethyl)piperidine-3-carboxamide]	
56	COc1ccccc1Cn1c(CCc2ccccc2)nnc1[C@@H](Cc1c[nH]c2ccccc12)NC(=O)C(C)(C)N [compound 26, (R)—N-(1-(4-(2-methoxybenzyl)-5-phenethyl-4H-1,2,4-triazol-3-yl)-2-(1H-indol-3-yl)ethyl)-2-amino-2-methylpropanamide]	
32	COc1cccc(Cn2c(CCCc3c[nH]c4ccccc34)nnc2[C@@H](Cc2c[nH]c3ccccc23)NC(=O)C(C)(C)N)c1 [compound 10, (R)—N-(1-(5-(3-(1H-indol-3-yl)propyl)-4-(3-methoxybenzyl)-4H-1,2,4-triazol-3-yl)-2-(1H-indol-3-yl)ethyl)-2-amino-2-methylpropanamide]	
~25000	CC(C)(N)C(=O)N[C@H](COCc1ccccc1)c1nnnn1Cc1ccccc1 [Example from page 175, WO 00/54729 A2, (S)—N-(1-(1-benzyl-tetrazol-5-yl)-2-(benzyloxy)ethyl)-2-amino-2-methylpropanamide, reference compound]	
125	CC(C)(N)C(=O)N[C@H](Cc1c[nH]c2ccccc12)c1nnc(CCc2c[nH]c3ccccc23)n1Cc1cccc2ccccc12 [compound 5, (R)—N-(1-(5-(2-(1H-indol-3-yl)ethyl)-4-(naphthalen-1-ylmethyl)-4H-1,2,4-triazol-3-yl)-2-(1H-indol-3-yl)ethyl)-2-amino-2-methylpropanamide]	
19	CCc1ccc(Cn2c(CCc3ccccc3)nnc2[C@@H](Cc2c[nH]c3ccccc23)NC(=O)C2CCNCC2)cc1 [compound 83, (R)—N-(1-(4-(4-ethylbenzyl)-5-phenethyl-4H-1,2,4-triazol-3-yl)-2-(1H-indol-3-yl)ethyl)piperidine-4-carboxamide]	
220	CC(C)(N)C(=O)N[C@H](Cc1c[nH]c2ccccc12)c1nnc(Cc2ccccc2)n1Cc1cccc2ccccc12 [compound 4, (R)—N-(1-(5-benzyl-4-(naphthalen-1-ylmethyl)-4H-1,2,4-triazol-3-yl)-2-(1H-indol-3-yl)ethyl)-2-amino-2-methylpropanamide]	
18	COc1cccc(Cn2c(CCc3c[nH]c4ccccc34)nnc2[C@@H](Cc2c[nH]c3ccccc23)NC(=O)C(C)(C)N)c1 [compound 6, (R)—N-(1-(5-(2-(1H-indol-3-yl)ethyl)-4-(3-methoxybenzyl)-4H-1,2,4-triazol-3-yl)-2-(1H-indol-3-yl)ethyl)-2-amino-2-methylpropanamide]	
81	CC(C)(N)C(=O)N[C@H](Cc1c[nH]c2ccccc12)c1nnc(CCc2c[nH]c3ccccc23)n1CCc1ccccc1 [compound 2, (R)—N-(1-(5-(2-(1H-indol-3-yl)ethyl)-4-phenethyl-4H-1,2,4-triazol-3-yl)-2-(1H-indol-3-yl)ethyl)-2-amino-2-methylpropanamide]	
66	COc1ccc(Cn2c(CCc3c[nH]c4ccccc34)nnc2[C@@H](Cc2c[nH]c3ccccc23)NS(=O)(=O)c2ccc(C)cc2)c(OC)c1 [compound 187, (R)-1-(5-(2-(1H-indol-3-yl)ethyl)-4-(2,4-dimethoxybenzyl)-4H-1,2,4-triazol-3-yl)-2-(1H-indol-3-yl)-N-tosylethanamine]	
80	COc1ccc(Cn2c(CCc3ccccc3)nnc2[C@@H](Cc2c[nH]c3ccccc23)NC(=O)c2ccccc2)cc1 [compound 176, N—((R)-1-(4-(4-methoxybenzyl)-5-phenethyl-4H-1,2,4-triazol-3-yl)-2-(1H-indol-3-yl)ethyl)benzamide]	
189	COc1ccc(Cn2c(CCc3ccccc3)nnc2[C@@H](Cc2c[nH]c3ccccc23)NCCN)c(OC)c1 [compound 180, N-1-((R)-1-(4-(2,4-dimethoxybenzyl)-5-phenethyl-4H-1,2,4-triazol-3-yl)-2-(1H-indol-3-yl)ethyl)ethane-1,2-diamine]	
203	COc1cc(Cn2c(CCc3c[nH]c4ccccc34)nnc2[C@@H](Cc2c[nH]c3ccccc23)NC(=O)C(C)(C)N)cc(OC)c1 [compound 21, (R)—N-(1-(5-(2-(1H-indol-3-yl)ethyl)-4-(3,5-dimethoxybenzyl)-4H-1,2,4-triazol-3-yl)-2-(1H-indol-3-yl)ethyl)-2-amino-2-methylpropanamide]	

— patent US8710089B2, “Triazole derivatives as ghrelin analogue ligands of growth hormone secretagogue receptors” (Zentaris GmbH, priority 2005, dated 2014)
